Test results published in patent publication US11999769B2, “Method for isolating and purifying bacteriocin against drug-resistant Staphylococcus aureus” (Zhejiang Gongshang University, priority 2022, dated 2024).

System: S. aureus D48
Experiment: effect on membrane potential difference, DiSC2(5) fluorescent probe
Type: cell-based, Staphylococcus aureus
Conditions: bacteriocin 1×MIC; Triton X-100 5% solution as positive control; scanning time 15 min
Description: S. aureus D48 cells were prepared by the same method as that in Example 3, washed with a 5 mM fluorescent leakage buffer and resuspended to 5 mL to obtain a bacterial suspension. A fluorescent probe DiSC2(5) was set to have an excitation wavelength of 650 nm and an emission wavelength of 670 nm. The scanning interval was set as Ex slit: 5 nm, Em slit: 5 nm, and the scanning time was 15 min. 2 mL of the fluorescent leakage buffer, 20 μL of the bacterial suspension, and 3 μL of 0.1 mM probe DiSC2(5) were added to a fluorescence cuvette, and mixed uniformly for detection. After the fluorescence response value became stable, the L. rhamnosus ZFM216 bacteriocin solution with a final concentration of 1×MIC was quickly added in the experimental group, and the same volume of fluorescence leakage buffer and 5% Triton X-100 solution were added to the control groups respectively.
Note: The preparation method of the fluorescent leakage buffer is: 0.7455 g of potassium chloride and 0.2463 g of a magnesium sulfate heptahydrate solution are accurately weighed, 22.5 mL of a 20% glucose solution and 10 mL of a phosphate buffer solution are measured, the volume is diluted to 100 mL with ultrapure water, the pH is adjusted to 7, and the prepared fluorescent leakage buffer is stored at 4° C. for later use.

Triton X-100 [TritonX-100]
fluorescence intensity of S. aureus D48 bacterial suspension (DiSC2(5)): rapidly increased to the highest value
